This passage reports EC50 and IC50 results from patent publication US12304916B2, “Thienopyridinyl and thiazolopyridinyl compounds useful as IRAK4 inhibitors” (BRISTOL-MYERS SQUIBB COMPANY, priority 2019, dated 2025).

The test system of test [1] is IL-6 levels in human whole blood stimulated with a TLR2 agonist (lipoteichoic acid). As to the kind of experiment: IRAK4 Whole Blood Assay. The format is cell-based. To be noted: 10 μg/mL lipoteichoic acid for 5 hours, IL-6 readout. As to the method:
Human whole blood containing the anti-coagulant ACD-A was plated in 384-well plate (25 μL/well) and incubated with compounds for 60 minutes at 37° C. in a 5% CO2 incubator. The blood was stimulated with a TLR2 agonist, 10 μg/mL final concentration of lipoteichoic acid (Invivogen, San Diego, CA) in 25 μL RPMI (Gibco) for 5 hours in a 5% CO2 incubator. At the end of the incubation, plates were centrifuged at 2300 rpm for 5 minutes. Supernatants were harvested and analyzed for IL-6 levels by Flow Cytometry beads assay (BD Biosciences, San Jose, CA).

In another test the target is IRAK4 (Homo sapiens (Human), UniProt Q9NWZ3). In words: IRAK4 Inhibition Assay. It counts as biochemical. To be noted: ATP 500 μM; IRAK4 0.6 nM; 60 min at room temperature. The method, then:
The assays were performed in U-bottom 384-well plates. The final assay volume was 30 μL prepared from 15 μL additions of enzyme and substrates (fluoresceinated peptide and ATP) and test compounds in assay buffer (20 mM HEPES pH 7.2, 10 mM MgCl2, 0.015% Brij 35 and 4 mM DTT). The reaction was initiated by the combination of IRAK4 with substrates and test compounds. The reaction mixture was incubated at room temperature for 60 min. and terminated by adding 45 μL of 35 mM EDTA to each sample. The reaction mixture was analyzed on the Caliper LABCHIP® 3000 (Caliper, Hopkinton, MA) by electrophoretic separation of the fluorescent substrate and phosphorylated product. Inhibition data were calculated by comparison to no enzyme control reactions for 100% inhibition and vehicle-only reactions for 0% inhibition. The final concentrations of reagents in the assays are ATP, 500 μM; FL-IPTSPITTTYFFFKKK peptide 1.5 μM; IRAK4, 0.6 nM; and DMSO, 1.6%.

The structures appear in SMILES notation.

IRAK4, sequence (Q9NWZ3 whole entry, species assumed): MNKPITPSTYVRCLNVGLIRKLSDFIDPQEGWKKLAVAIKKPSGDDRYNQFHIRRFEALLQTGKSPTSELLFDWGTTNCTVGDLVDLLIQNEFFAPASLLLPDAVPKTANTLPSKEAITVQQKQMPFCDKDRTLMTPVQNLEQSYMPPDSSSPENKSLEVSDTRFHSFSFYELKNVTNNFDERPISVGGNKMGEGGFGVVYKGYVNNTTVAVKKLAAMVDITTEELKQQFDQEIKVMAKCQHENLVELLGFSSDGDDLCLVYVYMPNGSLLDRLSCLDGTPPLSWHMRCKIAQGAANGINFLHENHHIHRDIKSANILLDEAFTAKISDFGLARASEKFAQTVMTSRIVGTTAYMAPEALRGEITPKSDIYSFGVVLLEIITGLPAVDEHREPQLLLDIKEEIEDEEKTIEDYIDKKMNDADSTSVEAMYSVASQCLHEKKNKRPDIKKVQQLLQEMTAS

As a reminder, the EC50 is the concentration that produces a half-maximal response. Low values mean greater potency, high ones weaker potency. For orientation: IC50 means the point on the concentration scale where inhibition reaches its midpoint. As to `CC(C)Nc1c(C(=O)NC[C@@H](F)C(C)(C)O)cnc2sc(-c3cn[nH]c3)cc12` [Example 21, (R)-N-(2-fluoro-3-hydroxy-3-methylbutyl)-4-(isopropylamino)-2-(1H-pyrazol-4-yl)thieno[2,3-b]pyridine-5-carboxamide], the EC50 in test [1] was > 20000 nM. For the same compound, the IC50 on IRAK4 stood at 2.4 nM.

Turning to `CC(C)Nc1c(C(=O)NC[C@@H](F)C(C)(C)O)cnc2sc(-c3cccnc3)cc12` [Example 22, (R)-N-(2-fluoro-3-hydroxy-3-methylbutyl)-4-(isopropylamino)-2-(pyridin-3-yl)thieno[2,3-b]pyridine-5-carboxamide], the midpoint of the response in test [1], the EC50, lay at 3420 nM. In addition, the IC50 on IRAK4 was determined as 5.3 nM.

In test [1], `CC(C)Nc1c(C(=O)NC[C@@H](F)C(C)(C)O)cnc2sc(-c3ccncc3)cc12` [Example 23, (R)-N-(2-fluoro-3-hydroxy-3-methylbutyl)-4-(isopropylamino)-2-(pyridin-4-yl) thieno[2,3-b]pyridine-5-carboxamide] came in with an EC50 of 4250 nM. For the same compound, the IC50 on IRAK4 stood at 4.8 nM.

With `CC(C)Nc1c(C(=O)NC[C@@H](F)C(C)(C)O)cnc2sc(-c3cccc(C#N)c3)cc12` [Example 24, (R)-2-(3-cyanophenyl)-N-(2-fluoro-3-hydroxy-3-methylbutyl)-4-(isopropylamino)thieno[2,3-b]pyridine-5-carboxamide], the EC50 in test [1] is > 20000 nM. In addition, the IC50 at IRAK4 was 16.8 nM.

`CC(C)Nc1c(C(=O)NC[C@@H](F)C(C)(C)O)cnc2sc(-c3ccc(C#N)nc3)cc12` [Example 25, (R)-2-(6-cyanopyridin-3-yl)-N-(2-fluoro-3-hydroxy-3-methylbutyl)-4-(isopropylamino) thieno[2,3-b]pyridine-5-carboxamide]: in test [1], the EC50 was > 20000 nM. For the same compound, the half-inhibitory concentration (IC50) at IRAK4 is 18.9 nM.

Regarding `CC(C)Nc1c(C(=O)NC[C@@H](F)C(C)(C)O)cnc2sc(-c3cncs3)cc12` [Example 27, (R)-N-(2-fluoro-3-hydroxy-3-methylbutyl)-4-(isopropylamino)-2-(thiazol-5-yl) thieno[2,3-b]pyridine-5-carboxamide], it took 580 nM to reach a half-maximal effect in test [1] (EC50). Besides, the IC50 at IRAK4 was found to be 2 nM.

Consider `CC(C)CCNC(=O)c1cnc2sc(-c3ccncc3)cc2c1NC(C)C` [Example 29, N-isopentyl-4-(isopropylamino)-2-(pyridin-4-yl)thieno[2,3-b]pyridine-5-carboxamide], for which the response in test [1] was half-maximal at 2400 nM (EC50). In addition, the IC50 on IRAK4 turned out to be 12.9 nM.

For the compound `CC(C)CCNC(=O)c1cnc2sc(-c3cncs3)cc2c1NC(C)C` [Example 30, N-isopentyl-4-(isopropylamino)-2-(thiazol-5-yl)thieno[2,3-b]pyridine-5-carboxamide], the EC50 in test [1] is > 20000 nM. Further, on IRAK4, the IC50 worked out at 7.5 nM.

`CC(C)Nc1c(C(=O)NC[C@@H](F)C(C)(C)O)cnc2sc(-c3ccnnc3)cc12` [Example 32, (R)-N-(2-fluoro-3-hydroxy-3-methylbutyl)-4-(isopropylamino)-2-(pyridazin-4-yl)thieno[2,3-b]pyridine-5-carboxamide]: the EC50 in test [1] was > 20000 nM. Besides, the IC50 on IRAK4 was found to be 10.3 nM.

As for `CC(C)Nc1c(C(=O)N[C@H]2CC[C@H](N)CC2)cnc2sc(-c3cncs3)cc12` [Example 38, N-((1r,4r)-4-aminocyclohexyl)-4-(isopropylamino)-2-(thiazol-5-yl)thieno[2,3-b]pyridine-5-carboxamide], the EC50 in test [1] is 5040 nM. Besides, the IC50 at IRAK4 was 12.3 nM.

Turning to `CC(C)Nc1c(C(=O)NCc2ncn[nH]2)cnc2sc(-c3cncs3)cc12` [Example 42, N-((1H-1,2,4-triazol-5-yl)methyl)-4-(isopropylamino)-2-(thiazol-5-yl)thieno[2,3-b]pyridine-5-carboxamide], the EC50 in test [1] was > 20000 nM. In addition, at IRAK4, the IC50 stood at 12.2 nM.

For the compound `CCOCCNC(=O)c1cnc2sc(-c3cncs3)cc2c1NC(C)C` [Example 43, N-(2-ethoxyethyl)-4-(isopropylamino)-2-(thiazol-5-yl)thieno[2,3-b]pyridine-5-carboxamide], in test [1], the EC50 is > 20000 nM. Further, the IC50 on IRAK4 worked out at 17.1 nM.

The compound `CC(C)Nc1c(C(=O)NCCC(C)(C)O)cnc2sc(-c3cncs3)cc12` [Example 44, N-(3-hydroxy-3-methylbutyl)-4-(isopropylamino)-2-(thiazol-5-yl)thieno[2,3-b]pyridine-5-carboxamide] showed an EC50 in test [1] of 660 nM. In addition, at IRAK4, the IC50 amounted to 8.2 nM.

In the case of `COC(=O)N[C@H]1CC[C@H](NC(=O)c2cnc3sc(-c4cncs4)cc3c2NC(C)C)CC1` [Example 50, methyl ((1r,4r)-4-(4-(isopropylamino)-2-(thiazol-5-yl)thieno[2,3-b]pyridine-5-carboxamido)cyclohexyl)carbamate], the EC50 in test [1] worked out at 5310 nM. At IRAK4, the half-maximal inhibitory concentration (IC50) was determined as 9.3 nM.

On to `CC(C)(O)[C@H](F)CNC(=O)c1cnc2sc(-c3cncs3)cc2c1NC1COC1` [Example 53, (R)-N-(2-fluoro-3-hydroxy-3-methylbutyl)-4-(oxetan-3-ylamino)-2-(thiazol-5-yl)thieno[2,3-b]pyridine-5-carboxamide], for which, in test [1], the concentration giving a half-maximal response (EC50) stood at 3650 nM. Also, at IRAK4, the IC50 came out at 15.1 nM.

On to `CC(C)Nc1c(C(=O)NC[C@@H](F)C(C)(C)O)cnc2sc(-c3cnc(N)s3)cc12` [Example 56, (R)-2-(2-aminothiazol-5-yl)-N-(2-fluoro-3-hydroxy-3-methylbutyl)-4-(isopropylamino)thieno[2,3-b]pyridine-5-carboxamide], for which, in test [1], the EC50 is > 10000 nM. At IRAK4, the IC50 was found to be 6 nM.

As to `Cc1ncc(-c2cc3c(NC(C)C)c(C(=O)NC[C@@H](F)C(C)(C)O)cnc3s2)s1` [Example 57, (R)-N-(2-fluoro-3-hydroxy-3-methylbutyl)-4-(isopropylamino)-2-(2-methylthiazol-5-yl)thieno[2,3-b]pyridine-5-carboxamide], in test [1], a half-maximal response (EC50) required 3540 nM. Further, on IRAK4, the IC50 came to 8.2 nM.

As to `CC(C)Nc1c(C(=O)NC[C@@H](F)C(C)(C)O)cnc2sc(-c3ccc(=O)[nH]c3)cc12` [Example 59, (R)-N-(2-fluoro-3-hydroxy-3-methylbutyl)-4-(isopropylamino)-2-(6-oxo-1,6-dihydropyridin-3-yl)thieno[2,3-b]pyridine-5-carboxamide], in test [1], the EC50 was 190 nM. In addition, the IC50 on IRAK4 amounted to 3.8 nM.

As for `CC(O)CCNC(=O)c1cnc2sc(-c3cncs3)cc2c1NC(C)C` (stereo not shown) [Example 60, N-(3-hydroxybutyl)-4-(isopropylamino)-2-(thiazol-5-yl)thieno[2,3-b]pyridine-5-carboxamide], the EC50 in test [1] was > 10000 nM. The IC50 on IRAK4 was 10.8 nM.

Regarding `CC(C)Nc1c(C(=O)NCCC2(O)CC(F)(F)C2)cnc2sc(-c3cncs3)cc12` [Example 63, N-(2-(3,3-difluoro-1-hydroxycyclobutyl)ethyl)-4-(isopropylamino)-2-(thiazol-5-yl)thieno[2,3-b]pyridine-5-carboxamide], a half-maximal response in test [1] (EC50) required 2340 nM. The IC50 on IRAK4 amounted to 5.4 nM.

As for `CC(C)Nc1c(C(=O)NCCN2CCS(=O)(=O)CC2)cnc2sc(-c3cncs3)cc12` [Example 68, N-(2-(1,1-dioxidothiomorpholino)ethyl)-4-(isopropylamino)-2-(thiazol-5-yl)thieno[2,3-b]pyridine-5-carboxamide], in test [1], the EC50 was > 20000 nM. Further, at IRAK4, the IC50 amounted to 10.9 nM.

Turning to `CC(C)Nc1c(C(=O)NCCc2ccncc2)cnc2sc(-c3ccc(=O)[nH]c3)cc12` [Example 71, 4-(isopropylamino)-2-(6-oxo-1,6-dihydropyridin-3-yl)-N-(2-(pyridin-4-yl)ethyl)thieno[2,3-b]pyridine-5-carboxamide], the EC50 in test [1] was > 20000 nM. Besides, the IC50 on IRAK4 was 5.2 nM.

Consider `CC(C)Nc1c(C(=O)NCCc2cccnc2)cnc2sc(-c3ccc(=O)[nH]c3)cc12` [Example 72, 4-(isopropylamino)-2-(6-oxo-1,6-dihydropyridin-3-yl)-N-(2-(pyridin-3-yl)ethyl)thieno[2,3-b]pyridine-5-carboxamide], for which the EC50 in test [1] was > 20000 nM. Besides, the IC50 at IRAK4 was found to be 6.7 nM.

On to `CC(C)Nc1c(-c2cn(CC3CC3)nn2)cnc2sc(-c3cncs3)cc12` [Example 78, 5-(1-(cyclopropylmethyl)-1H-1,2,3-triazol-4-yl)-N-isopropyl-2-(thiazol-5-yl)thieno[2,3-b]pyridin-4-amine], for which the EC50 in test [1] is > 20000 nM. The IC50 on IRAK4 came out at 8.8 nM.

Regarding `CC(C)Nc1c(-c2cn(CCCO)nn2)cnc2sc(-c3cncs3)cc12` [Example 79, 3-(4-(4-(isopropylamino)-2-(thiazol-5-yl)thieno[2,3-b]pyridin-5-yl)-1H-1,2,3-triazol-1-yl)propan-1-ol], the EC50 in test [1] is > 10000 nM. Also, the IC50 at IRAK4 was determined as 2.3 nM.

`CC(C)Nc1c(-c2cn(CCCO)nn2)cnc2sc(-c3ccc(=O)[nH]c3)cc12` [Example 80, 5-(5-(1-(3-hydroxypropyl)-1H-1,2,3-triazol-4-yl)-4-(isopropylamino)thieno[2,3-b]pyridin-2-yl) pyridin-2(1H)-one] had a concentration giving a half-maximal response (EC50) in test [1] of 420 nM. The IC50 on IRAK4 worked out at 5.2 nM.
